Data on 32 molecules can be found in patent US4576957A, “N-(Substituted phenyl)-N'-[(1H-imidazol-1-yl) and (1H-1,2,4-triazol-1-yl)alkyl]ureas” (American Cyanamid Company, priority 1984, dated 1986).

In assay [1] the target is T1, thromboxane synthetase enzyme (Rattus norvegicus, UniProt P49430).
T1 construct: The platelets were isolated by centrifuging the PRP for 10 minutes at 1060xg; endogenous in cells; host or cells: washed platelets from arterial blood of Okamoto-Aoki spontaneously hypertensive rats (Taconic Farms, Germantown, NY)
T1 sequence (P49430 1-533): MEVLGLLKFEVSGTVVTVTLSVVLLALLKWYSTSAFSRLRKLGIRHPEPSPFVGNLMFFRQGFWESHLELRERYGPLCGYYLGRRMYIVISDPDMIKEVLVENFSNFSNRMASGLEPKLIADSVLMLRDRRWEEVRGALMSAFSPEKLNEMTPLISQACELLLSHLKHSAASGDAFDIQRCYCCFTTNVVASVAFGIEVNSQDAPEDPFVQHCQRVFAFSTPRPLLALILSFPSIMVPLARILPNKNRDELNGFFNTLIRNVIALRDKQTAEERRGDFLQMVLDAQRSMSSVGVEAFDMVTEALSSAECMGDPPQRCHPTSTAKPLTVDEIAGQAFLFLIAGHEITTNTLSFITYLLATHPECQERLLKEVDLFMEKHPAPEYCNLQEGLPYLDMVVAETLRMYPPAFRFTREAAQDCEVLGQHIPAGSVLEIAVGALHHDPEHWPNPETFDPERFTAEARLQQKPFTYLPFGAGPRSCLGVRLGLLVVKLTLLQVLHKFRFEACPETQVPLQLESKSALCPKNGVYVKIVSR
In words: Thromboxane Synthetase Enzyme Inhibition (TXB2 formation by washed SHR platelets, RIA). In kind it is cell-based, Okamoto-Aoki spontaneously hypertensive rats (SHR). The conditions noted are these: 10 min; Dose 10^-4 (unit inferred); SHR platelet suspension, 10 minutes at 37° C. The procedure:
Under urethan anesthesia, […] of arterial blood was collected in one ml. of 3.2% sodium citrate in a polystyrene tube from Okamoto-Aoki spontaneously hypertensive rats (SHR) (Taconic Farms, Germantown, NY) between 19 and 24 weeks in age. The blood was diluted with 3 ml. cold saline and centrifuged at room temperature for 15 minutes at 460xg. The platelet rich plasma (PRP) was separated. The platelets were isolated by centrifuging the PRP for 10 minutes at 1060xg and were washed in 4 ml. of cold oxygenated Krebs phosphate buffer, pH 7.4. The chilled platelets recovered from centrifuging at 800xg for 10 minutes were resuspended in oxygenated Krebs phosphate buffer and diluted to contain 4.5-6.0×10^4 platelets/μl.
The inhibition of thromboxane (TX) formation was studied by determining the concentration of thromboxane B2 (TXB2), the stable hydrolysis product of TXA2. Assay samples, prepared on ice, contained 200 μl platelet suspension, 50 μl saline and 50 μl saline and 50 μl vehicle or drug under study. The samples were incubated for 10 minutes at 37° C. in a metabolic shaker. The reaction was terminated by immersing the tubes in an ice bath and adding 50 μl of 0.5M citric acid. The samples were centrifuged for 10 minutes in a refrigerated centrifuge and the supernatants thus obtained were decanted and stored at -20° C. The TXB2 content for each sample was determined by a direct radioimmunoassay (RIA) utilizing a TXB2 specific RIA kit purchased from New England Nuclear, Boston, MA and expressed as pg TXB2 formed minute^-1 sample^-1, from which the percent inhibition of TXB2 formation was calculated.

Assay [2] concerns spontaneously hypertensive rats. In words: Hypotensive Activity in Spontaneously Hypertensive Rats. The conditions noted are these: gavage, 100 mg./kg. or less, two doses 24 hours apart; measured 28 hours after initial dose; initial average 170±1.5 mm. The assay is classed as in vivo. The procedure:
The novel compounds of the present invention are active hypotensive agents and were tested for hypotensive activity by the method of P. S. Chan and D. Poorvin, Clinical and Experimental Hypertension, 1 (6), 817-830 (1979). Male, 16 week old, spontaneously hypertensive rats of the Okamoto strain, from Taconic Farms, Germantown, N.Y., having an average mean arterial blood pressure of 170±1.5 mm of mercury are used in the test. One to 3 rats are used per test compound. A rat is dosed by gavage with a test compound, suspended in 2% pre-boiled starch at a concentration of 50 mg./ml., at a dose of 100 mg./kg. of body weight or less, with 0.9% sodium chloride loading at a dose of 25 ml./kg. of body weight. A second identical dose of the test compound, without sodium chloride loading is given 24 hours later. At 28 hours after the initial dose the mean arterial blood pressure is measured by the method of Chan and Poorvin vide supra. The procedure is repeated in a second and third rat when necessary.

Assay [3] concerns ischemic myocardium in canines. The conditions noted are these: cited from earlier work.
Assay [4] has as its system coronary arteries of guinea pigs. The conditions noted are these: cited from earlier work.
For assay [5], the system named is coronary arteries of rabbits. The conditions noted are these: cited from earlier work.

Consider `O=C(NCCCn1ccnc1)Nc1ccccc1` [N--[3-(1H--imidazol-1-yl)propyl]-N'--phenylurea], for which the inhibition at 100 µM in assay [1] was found to be 97%. Moreover, in assay [2], the “Average MABP” value is on record as 141 mm Hg. As to `O=C(NCCCn1ccnc1)Nc1ccc(Br)cc1` [N--(4-bromophenyl)-N'--[3-(1H--imidazole-1-yl)propyl]-urea], in assay [1], the inhibition at 100 µM worked out at 95%. In assay [2], the “Average MABP” value is recorded as 145 mm Hg.

Molecule `Cc1cn(CCCCNC(=O)Nc2ccc(Cl)cc2)cn1` [N--(4-chlorophenyl)-N'--[4-(4-methyl-1H--imidazol-1-yl)-butyl]urea] gave an inhibition at 100 µM in assay [1] of 100%. For `O=C(NCCCCn1ccnc1)Nc1ccccc1Cl` [N-(2-Chlorophenyl)-N'-[4-(-1H-imidazol-1-yl)butyl]urea], the “Average MABP” value in assay [2] was 97 mm Hg. In assay [1], `COc1ccc(NC(=O)NCCCn2cncn2)cc1` [N--(4-methoxyphenyl)-N'--[3-(1H--1,2,4-triazol-1-yl)-propyl]urea] came in with an inhibition at 100 µM of 71%. In assay [1], `O=C(NCCCn1ccnc1)Nc1cccc(Cl)c1` [N--(3-chlorophenyl)-N'--[3-(1H--imidazole-1-yl)propyl]-urea] gave an inhibition at 100 µM of 100%. For the same molecule, the “Average MABP” value in assay [2] came to 124 mm Hg. In turn, `O=C(NCCCn1ccnc1)Nc1ccccc1Cl` [N--(2-chlorophenyl)-N'--[3-(1H--imidazole-1-yl)propyl]-urea] came in with an inhibition at 100 µM in assay [1] of 94%. In addition, in assay [2], the “Average MABP” value came out at 123 mm Hg.

Take `O=C(NCCCn1cncn1)Nc1ccccc1` [N--phenyl-N'--[3-(1H--1,2,4-triazol-1-yl)propyl]urea]: in assay [2], the “Average MABP” value stood at 151 mm Hg. For `O=C(NCCCCn1ccnc1)Nc1ccc(Cl)cc1` [N--(4-chlorophenyl)-N'--[4-(1H--imidazol-1-yl)butyl]urea], the inhibition at 100 µM in assay [1] was 95%. The “Average MABP” value in assay [2] stood at 131 mm Hg. For `O=C(NCCCn1cncn1)Nc1ccccc1Cl` [N--(2-chlorophenyl)-N'--[3-(1H--1,2,4-triazol-1-yl)propyl]-urea], in that order: 86% and 142 mm Hg.

In the case of `O=C(NCCCn1ccnc1-c1ccccc1)Nc1ccc(Cl)cc1` [N--(4-chlorophenyl)-N'--[3-(2-phenyl-1H--imidazol-1-yl)-propyl]urea], 100 µM produced 86% inhibition in assay [1]. `O=C(NCCCn1ccnc1)Nc1cccc(C(F)(F)F)c1` [N-[3-(1H-Imidazol-1-yl)propyl]-N'-[3-(trifluoromethyl)phenyl]urea] yielded an inhibition at 100 µM in assay [1] of 100%. Molecule `O=C(NCCCn1cncn1)Nc1ccc(Br)cc1` [N--(4-bromophenyl)-N'--[3-(1H--1,2,4-triazol-1-yl)propyl]urea] yielded an inhibition at 100 µM in assay [1] of 86%. `COc1ccc(NC(=O)NCCCn2ccnc2)cc1` [N--[3-(1H--imidazol-1-yl)propyl]-N'--(4-methoxyphenyl)urea]: the inhibition at 100 µM in assay [1] was found to be 94%. `O=C(NCCCn1cncn1)Nc1ccccc1F` [N--(2-fluorophenyl)-N'--[3-(1H--1,2,4-triazol-1-yl)propyl]-urea] yielded an inhibition at 100 µM in assay [1] of 70%. In addition, the “Average MABP” value in assay [2] is given as 149 mm Hg. As for `CCCCC[C@H](O)/C=C/[C@@H]1[C@H]2C/C(=C/CCCC(=O)O)O[C@H]2C[C@H]1O` [PGI2, Prostacyclin], the “effect on ischemic myocardium” value in assay [3] is “beneficial effects”.

Regarding `O=C(NCCCn1cncn1)Nc1cccc(Cl)c1` [N--(3-chlorophenyl)-N--[3-(1H--1,2,4-triazol-1-yl)propy]-urea], the inhibition at 100 µM in assay [1] came to 99%. In assay [2], the “Average MABP” value was determined as 149 mm Hg. `Cc1ccc(NC(=O)NCCCn2ccnc2)cc1` [N--[3-(1H--imidazole-1-yl)-propyl]-N'--(4-methylphenyl)-urea] returned an inhibition at 100 µM in assay [1] of 98%. Molecule `O=C(NCCCn1cncn1)Nc1ccc(Cl)cc1` [N-(4-Chlorophenyl)-N'-[3-(1H-1,2,4 triazol-1-yl)propyl]urea] yielded an inhibition at 100 µM in assay [1] of 93%. In assay [2], the “Average MABP” value turned out to be 145 mm Hg. On to `O=C(NCCCn1cncn1)Nc1ccc(Cl)c(Cl)c1` [N--(3,4-dichlorophenyl)-N'--[3-(1H--1,2,4-triazol-1-yl)-propyl]urea], for which the “Average MABP” value in assay [2] worked out at 155 mm Hg. Consider `O=C(NCCCn1ccnc1)Nc1ccc(Cl)cc1` [N-(4-Chlorophenyl)-N'-[3-(1H-imidazol-1-yl)propyl]urea], for which, in assay [1], the inhibition at 100 µM turned out to be 92%. In addition, the “Average MABP” value in assay [2] is listed as 122 mm Hg.

For `CCCCC[C@H](O)/C=C/[C@H]1O[C@H]2C[C@H](O2)[C@@H]1C/C=C\CCCC(=O)O` [TXA2, thromboxane A2], the “effect of injection into coronary arteries” value in assay [4] is “causes myocardial ischemia and subendocardial necrosis”; in assay [5], “causes myocardial ischemia and subendocardial necrosis”. `O=C(NCCCn1cncn1)Nc1cccc(C(F)(F)F)c1` [N-[3-(1H-1,2,4-triazol-1-yl)propyl]-N'-[3-(trifluoromethyl)phenyl]urea]: the inhibition at 100 µM in assay [1] came to 99%. Further, the “Average MABP” value in assay [2] amounted to 143 mm Hg. Consider `O=C(NCCCn1ccnc1)Nc1ccccc1Br` [N--(2-bromophenyl)-N'--[3-(1H--imidazole-1-yl)propyl]-urea], for which, in assay [1], the inhibition at 100 µM stood at 95%. Besides, the “Average MABP” value in assay [2] is given as 113 mm Hg.

The molecule `O=C(NCCCn1cncn1)Nc1ccccc1Br` [N--(2-bromophenyl)-N'--[3-(1H--1,2,4-triazol-1-yl)propyl]-urea] yielded an inhibition at 100 µM in assay [1] of 85%. Moreover, the “Average MABP” value in assay [2] was determined as 130 mm Hg. On to `O=C(NCCCCn1ccnc1)Nc1ccccc1Br` [N--(2-bromophenyl)-N'--[4-(1H--imidazol-1-yl)-butyl]-urea], for which, in assay [2], the “Average MABP” value stood at 98 mm Hg. The molecule `Cc1cn(CCCNC(=O)Nc2ccc(Cl)cc2)cn1` [N--(4-chlorophenyl)-N'--[3-(4-methyl-1H--imidazol-1-yl)-propyl]urea] displayed an inhibition at 100 µM in assay [1] of 92%. Besides, the “Average MABP” value in assay [2] turned out to be 138 mm Hg. In the same order, the values of `O=C(NCCCn1ccnc1)Nc1ccc(F)cc1` [N--(4-fluorophenyl)-N'--[3-(1H--imidazol-l-yl)propyl]-urea] are 100% and 134 mm Hg. For `O=C(NCCCn1cncn1)Nc1ccc(F)cc1` [N--(4-fluorophenyl)-N'--[3-(1H--1,2,4-triazol-1-yl)propyl]urea], in assay [1], 100 µM produced 97% inhibition. The molecule `O=C(NCCCn1ccnc1)Nc1ccc(Cl)c(Cl)c1` [N--(3,4-dichlorophenyl)-N'--[3-(1H--imidazole-1-yl)propyl]-urea] had an inhibition at 100 µM in assay [1] of 95%. Besides, the “Average MABP” value in assay [2] is 146 mm Hg. Take `O=C(NCCCCCn1ccnc1)Nc1ccc(Cl)cc1`: testing at 100 µM in assay [1] gave an inhibition of 92%. Moreover, the “Average MABP” value in assay [2] was determined as 153 mm Hg. For `O=C(NCCCn1ccnc1)Nc1ccccc1F` [N--(2-fluorophenyl)-N'--[3-(1H--imidazole-1-yl)propyl]-urea], in that order: 99% and 135 mm Hg.
